Test results taken from patent EP4684784A1, “ANTI-INFLAMMATORY COSMETIC COMPOSITION” (LG Chem, Ltd., priority 2023, dated 2025).

Tested on: Mouse macrophages
Assay: Evaluation of reactive nitrogen species inhibiting ability (nitric oxide production, Griess reagent, LPS-treated macrophages)
Type: cell-based
Conditions: for Nitrogen oxide concentration, Average / Nitrogen oxide concentration, Once / Nitrogen oxide concentration, Two times / Nitrogen oxide concentration, Three times: LPS 1 µg/ml, cultured 24 hours; for Nitrogen oxide concentration, Average: average of three; for Nitrogen oxide concentration, Once: replicate 1; for Nitrogen oxide concentration, Two times: replicate 2; for Nitrogen oxide concentration, Three times: replicate 3
Method: Mouse macrophages were divided into 1X10^6 cells in a 6-well plate and cultured for 24 hours, then treated with LPS (Lipopolysaccharide, concentration 1 µg/ml) solution, and treated with the 3-hydroxypropionic acid aqueous solution according to Preparation Example 1 at four concentrations (3HP concentration: 0 wt.%, 0.0125 wt.%, 0.025 wt.%, 0.05 wt.%), and then cultured again for 24 hours. Only the medium was then separated and centrifuged for 10 minutes to collect only the supernatant. The supernatant was mixed with Griess reagent (Sigma-Aldrich) reagent in a 1:1 ratio and reacted at room temperature, and then the absorbance (OD, wavelength 540 nm) was measured using a microplate reader. The measured value was substituted into the regression equation obtained from the standard curve prepared by reacting Griess reagent (Sigma-Aldrich) and NaNO2 in a 1:1 ratio to calculate the amount of nitric oxide(NO) produced. Here, the case in which neither the LPS solution nor the 3HP aqueous solution was treated was performed as a negative control group.

O=C(O)CCO [Example 3HP, 3-hydroxypropionic acid]
Nitrogen oxide concentration, Average (3HP concentration 0.0125 wt.%): 64.949 µM
Nitrogen oxide concentration, Once (3HP concentration 0.0125 wt.%): 63.956 µM
Nitrogen oxide concentration, Two times (3HP concentration 0.0125 wt.%): 64.800 µM
Nitrogen oxide concentration, Three times (3HP concentration 0.0125 wt.%): 66.093 µM
Nitrogen oxide concentration, Average (3HP concentration 0.025 wt.%): 64.774 µM
Nitrogen oxide concentration, Once (3HP concentration 0.025 wt.%): 63.138 µM
Nitrogen oxide concentration, Two times (3HP concentration 0.025 wt.%): 65.222 µM
Nitrogen oxide concentration, Three times (3HP concentration 0.025 wt.%): 65.961 µM
Nitrogen oxide concentration, Average (3HP concentration 0.05 wt.%): 56.630 µM
Nitrogen oxide concentration, Once (3HP concentration 0.05 wt.%): 56.146 µM
Nitrogen oxide concentration, Two times (3HP concentration 0.05 wt.%): 56.357 µM
Nitrogen oxide concentration, Three times (3HP concentration 0.05 wt.%): 57.386 µM
inhibiting the production of reactive nitrogen species (under the treatment concentrations 0.0125 to 0.05 wt.%, result in words): effect of inhibiting the production of reactive nitrogen species was exhibited
